From ChEMBL document CHEMBL1157873, “Synthesis and biological activity of Delta-5,6-norcantharimides: importance of the 5,6-bridge” (Eur J Med Chem, 2010) come the findings set out here.

The test system of series [1] is MCF7. Description: Cytotoxicity against human MCF7 cells after 72 hrs by MTT assay. Type of series: functional. The conditions noted are these: MCF7, 72 h. A general note: Tetrazolium assays rely on reduction of a dye to a coloured formazan, in cell work by metabolically active cells.
Series [2] in a line: Cytotoxicity against human BE(2)-C cells after 72 hrs by MTT assay. In kind it is functional.
Series [3] in a line: Inhibition of human red blood cells protein phosphatase 2A assessed as free phosphate ion release after 60 mins by malachite green method.
The subject of series [4] is SW480. Description: Cytotoxicity against human SW480 cells after 72 hrs by MTT assay. The conditions noted are these: SW480, 72 h. Type of series: functional.
Series [5] concerns DU-145. Put plainly: Cytotoxicity against human DU145 cells after 72 hrs by MTT assay. In kind it is functional. The conditions noted are these: DU-145, 72 h.
In series [6] the test system is A-431. Description: Cytotoxicity against human A431 cells after 72 hrs by MTT assay. Type of series: functional. The conditions noted are these: A-431, 72 h.
Series [7] deals with HT-29. Put plainly: Cytotoxicity against human HT-29 cells after 72 hrs by MTT assay. In kind it is functional. The conditions noted are these: HT-29, 72 h.
Series [8] can be described thus: Cytotoxicity against human SJ-G2 cells after 72 hrs by MTT assay. The conditions noted are these: SJ-G2, 72 h. In kind it is functional.
Series [9] has as its system NCI-H460. Put plainly: Cytotoxicity against human H460 cells after 72 hrs by MTT assay. Type of series: functional. The following applies: NCI-H460, 72 h.
Series [10] in a line: Inhibition of rabbit skeletal muscle protein phosphatase 1 assessed as free phosphate ion release after 60 mins by malachite green method. Set-up: species or system Oryctolagus cuniculus.
Series [11] deals with A2780. Description: Cytotoxicity against human A2780 cells after 72 hrs by MTT assay. Type of series: functional. The conditions noted are these: A2780, 72 h.
Series [12] is described as follows: Solubility of the compound. Type of series: physicochemical.
Series [13] in a line: Cytotoxicity against human SJ-G2 cells at 100 uM after 72 hrs by MTT assay. Type of series: functional. The following applies: SJ-G2, 72 h.
In series [14] the test system is A2780. Put plainly: Cytotoxicity against human A2780 cells at 100 uM after 72 hrs by MTT assay. In kind it is functional. The following applies: A2780, 72 h.
For series [15], the system named is SW480. Put plainly: Cytotoxicity against human SW480 cells at 100 uM after 72 hrs by MTT assay. The conditions noted are these: SW480, 72 h. Type of series: functional.
Series [16] concerns NCI-H460. Put plainly: Cytotoxicity against human H460 cells at 100 uM after 72 hrs by MTT assay. The following applies: NCI-H460, 72 h. Type of series: functional.
The nature of series [17]: Cytotoxicity against human BE(2)-C cells at 100 uM after 72 hrs by MTT assay. Type of series: functional.
The test system of series [18] is DU-145. Put plainly: Cytotoxicity against human DU145 cells at 100 uM after 72 hrs by MTT assay. Type of series: functional. The following applies: DU-145, 72 h.
In series [19] the test system is A-431. Put plainly: Cytotoxicity against human A431 cells at 100 uM after 72 hrs by MTT assay. Type of series: functional. The following applies: A-431, 72 h.
The test system of series [20] is MCF7. Put plainly: Cytotoxicity against human MCF7 cells at 100 uM after 72 hrs by MTT assay. In kind it is functional. The conditions noted are these: MCF7, 72 h.
The test system of series [21] is HT-29. Description: Cytotoxicity against human HT-29 cells at 100 uM after 72 hrs by MTT assay. Type of series: functional. The following applies: HT-29, 72 h.

As usually defined, the GI50 is the concentration that inhibits growth by half. Higher therefore signals less potent growth inhibition. In general, IC50 refers to the concentration that gives 50% inhibition. In the case of `O=C1OC(=O)C2C3CCC(O3)C12` (stereo unspecified), the GI50 came out at 68 µM in series [1]; 43 µM in [2]; 44 µM in series [4]; 28 µM in series [5]; 31 µM in series [6]; 57 µM in series [7]. In addition, the GI50 in series [8] worked out at 23 µM; in [9], 45 µM; in series [11] it was 38 µM. The IC50 is 2.7 µM in series [3] and 7.7 µM in [10].
Regarding `CN(C)CCNC(=O)[C@@H]1CNC[C@@H]1C(=O)O`, in series [12], the solubility entry is reported as “Insoluble”.
In the case of `O=C1[C@H]2CNC[C@H]2C(=O)N1N1CCOCC1`, in series [12], the solubility result was “Insoluble”.
For `O=C1OC(=O)[C@@H]2CSC[C@H]12`, the IC50 in series [3] and in series [10] was above 100 µM throughout. Besides, the solubility result in [12] is on record as “Insoluble”.
In the case of `CCCN1C(=O)[C@H]2CNC[C@H]2C1=O`, the solubility result in [12] was “Insoluble”.
On to `C[C@@]12C(=O)OC(=O)[C@]1(C)[C@H]1CC[C@@H]2O1` [CANTHARIDIN], for which the GI50 in series [1] is 7.5 µM; in [2], 3.7 µM; in series [4], 4.5 µM; in series [5], 2.1 µM; in series [6], 2.9 µM; in [7], 3.2 µM. Moreover, the figures for the GI50 in series [8], in [9] and in series [11] were 1.7 µM, 3.3 µM and 4.4 µM, respectively. The figures for the IC50 in [3] and in series [10] were 0.9 µM and 6 µM, respectively.
The term inhibition denotes the share of the control response that was lost under treatment. Lower therefore signals a weak effect. For `CCOC(=O)C[C@@H](C(=O)OCC)N1C(=O)[C@H]2COC[C@H]2C1=O`, the inhibition at 100 µM in [13] is below 10%; in series [14], 15%; in [15] it was below 10%; in [16], below 10%; in [17] it was below 10%; in [18], below 10%. The inhibition at 100 µM in series [19] is below 10%; in series [20] it was 16%; in series [21] it was 16%.
For the molecule `CC(CO)N1C(=O)[C@H]2COC[C@H]2C1=O` (stereo partly specified), the inhibition at 100 µM in series [13] was below 10%; in series [14], 13%; in series [15] it was below 10%; in series [16], 10%; in series [17], below 10%; in [18], below 10%. In addition, the inhibition at 100 µM in series [19], in series [20] and in series [21] was below 10% each time.
On to `O=C(O)C[C@@H](C(=O)O)N1C(=O)[C@H]2COC[C@H]2C1=O`, for which the inhibition at 100 µM is below 10% in series [13]; 15% in series [14]; below 10% in [15]; below 10% in series [16]; below 10% in [17]; below 10% in series [18]. Also, the inhibition at 100 µM in series [19] is below 10%; in series [20], 13%; in series [21], 14%.
For `NCCC[C@@H](C(=O)O)N1C(=O)[C@H]2COC[C@H]2C1=O`, the inhibition at 100 µM in series [13] was 32%; in series [14] it was below 10%; in [15], below 10%; in series [16], below 10%; in series [17], below 10%; in series [18] it was below 10%. The values for the inhibition at 100 µM in [19], in [20] and in series [21] were 10%, below 10% and below 10%, respectively.
For `CCOC(=O)C[C@@H](C(=O)OCC)N1C(=O)[C@H]2CNC[C@H]2C1=O`, the inhibition at 100 µM is below 10% in series [13]; 14% in series [14]; below 10% in series [15]; below 10% in series [16]; below 10% in series [17]; below 10% in series [18]. In addition, the results for the inhibition at 100 µM in series [19], in series [20] and in series [21] were below 10%, 15% and 15%, respectively.
Turning to `CC(CO)N1C(=O)[C@H]2CNC[C@H]2C1=O` (stereo partly specified), the inhibition at 100 µM in series [13], in series [14], in [15], in [16], in [17] and in series [18] was below 10% in each case. The figures for the inhibition at 100 µM in series [19], in [20] and in series [21] were below 10%, below 10% and 15%, respectively.
As to `CCC(CO)N1C(=O)[C@H]2CSC[C@H]2C1=O` (stereo partly specified), the inhibition at 100 µM in [13], in series [14], in series [15], in series [16], in [17] and in [18] was below 10% in each case. Besides, the inhibition at 100 µM in [19], in series [20] and in series [21] was below 10% each time.
